Series [1] has as its target T1, Autotaxin (Homo sapiens, UniProt Q13822).
T1 construct: from tissue; host or cells: pooled human plasma
Kind of series: LPA formation in pooled human plasma (ex vivo autotaxin inhibition). Type of series: biochemical. To be noted: 2 hours incubation. In a few lines: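 Ex vivo: LPA 18:2 and 20:4 levels in compound-treated versus untreated pooled human plasma after 2 h incubation, measured by butanol extraction and negative-mode MRM LC/MS/MS against calibration standards. IC50 from non-linear fit of inhibition versus concentration.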

A short description of series [2]: Pharmacokinetics after a single oral dose in SD rats. Conditions: Sprague-Dawley, rat, plasma, single oral dose in 0.5% methylcellulose; for half-life: read-out: T½ (converted). It counts as in vivo. From the text: (§1) The pharmacokinetics and pharmacodynamics of test compounds after a single oral dose were investigated in SD rats, Beagle dog and Cynomolgus monkey. SD Rats (200-250 g) were purchased from Beijing Vital River Laboratory Animal Technology Co., Ltd. Male Beagle Dog, 6-9 kg, were purchased from Beijing Mashall. Male Cynomolgus monkeys, 3-5 kg, were purchased from Suzhou Xishan Zhongke Drugs Research and Development Co., Ltd. Following arrival, the animals were acclimated for 7 days in individual cages maintained at ambient temperature, 34 to 68% relative humidity, and 12-h light/dark cycles. Just prior to dose administration the rats were fasted overnight with free access to water. Animals were given 10 mL/kg of formulated compound in 0.5% methylcellulose (MC) by oral gavage, and the animals were fed four hours after dosing. The animals were manually restrained at the designated time points (pre-dose, 0.5, 1, 3, 6, 9, 12, and 24 h post-dose) to collect blood. Approximately 120 μL of blood was collected via orbital sinus into K2EDTA tubes. The blood samples were centrifuged at 5000 rpm for 10 min at 4° C. to obtain plasma samples.
To determine the compound concentration in the plasma samples, a 10× calibration standard of compound were prepared by serial dilution in DMSO: 20000, 10000, 5000, 2000, 1000, 500, 200, 100, 50, 20, and 10 ng/mL. 3 μL of calibration standard solution was added into 27.0 μL of blank plasma in 1.5-mL microcentrifuge tubes to generate 1× calibration standards. The 30.0 μL of standards or study plasma was mixed with 200 μL of acetonitrile (containing 5 ng/mL verapamil for internal control) in a 1.5-mL microcentrifuge tube. After vertexing for 1 minute and centrifuging at 10000 rpm for 10 min, 180 μL of supernatant was transferred into a 96-well plate and the compound concentration in the plasma was quantitated using LC/MS/MS together with standards. Briefly, 1 μL of the solutions were injected for LC-MS/MS analysis using an Agilent Zorbax C18 column (50×2.1 mm, 3.5 μm) with mobile phase A [5 mM NH4Ac (0.1% FA)] and phase B [Methanol (0.1% FA)]. Mass spectrometer parameters optimization for compound was performed by infusing standard diluted at 1 μg/mL in water/methanol (1/1, v/v) directly in the ionization source at a flow of 10 μL/min. Quantitative data were acquired in multiple reaction monitoring (MRM) positive APCI mode.

In series [3] the target is T2, Autotaxin (Rattus norvegicus, UniProt Q64610).
T2 construct: from tissue; host or cells: SD rats in vivo; plasma sampled after a single oral dose
Put plainly: Pharmacodynamics: LPA 18:2 inhibition in plasma of SD rats after oral dose. Conditions: single oral dose, LPA18:2 inhibition vs plasma concentration of compound, read-out: In vivo rat IC50 (LPA 18:2) (converted).
Description: as §1
Autotaxin is a secreted phosphodiesterase that converts lysophosphatidylcholine (LPC) into lysophosphatidic acid (LPA), and LPA 18:2 formation was used to evaluate the efficacy of autotaxin inhibitors. Therefore, the LPA 18:2 formation in response to drug administration was analyzed in each time point to assess the pharmacodynamics of test compounds. To determine the LPA18:2 concentration in study plasma, a 10× calibration standard of LPA 18:2 were prepared by serial dilution in butyl alcohol: 20000, 10000, 5000, 2000, 1000, 500, 200, 100, 50, 20, and 10 ng/mL. 3 μL of calibration standard solution was added into 27.0 μL of blank plasma in 1.5-mL microcentrifuge tubes to generate 1× calibration standards. The 30.0 μL of standards or study plasma was added into 1.5-mL microcentrifuge tubes. 200 μL of butyl alcohol (containing 25.0 ng/mL LPA17:0 for internal control) was added into each 1.5-mL microcentrifuge tube containing study plasma or calibration standards. After vortexing for 1 minute and centrifuging at 10000 rpm for 10 min, 180 μL of supernatant was transferred into a 96-well plate and the LPA18:2 concentration in the plasma was quantitated using LC/MS/MS together with standards. Briefly, 8 μL of the solutions were injected for LC-MS/MS analysis using an ACQUITY UPLC BEH C18 column (2.1×50 mm, 1.7 μm) with mobile phase A [20 mM NH4OAC in water (0.1% FA)] and phase B [5 mM NH4OAC in water/0.2% FA in ACN=5:95]. Mass spectrometer parameters optimization for LPA18:2 were performed by infusing standard diluted at 1 μg/mL in butyl Alcohol directly in the ionization source, at a flow of 10 μL/min. Deprotonated molecular ion at m/z 433.2 ([M−H]−) for LPA18:2, and abundant product ion at m/z 152.8 for LPA18:2 were obtained. Quantitative data were acquired in multiple reaction monitoring (MRM) negative electrospray ionization mode
The percentage of LPA18:2 inhibition was plotted against the corresponding concentration of compound and the IC50 was calculated through non-linear regression fitting.

[4] abbreviates: LPA 18:2 by LC/MS/MS, read-out: LPA formation (18:2) (IC50).
The mark [5] stands for this setting: LPA 20:4 by LC/MS/MS, read-out: LPA formation (20:4) (IC50).

Read-outs that look alike come from different tables or passages of the source.

One may read the IC50 as the concentration needed to halve the response being measured. By AUC is commonly meant the area under the concentration-time curve, a measure of exposure. High values mean more exposure, low ones less exposure. One may read the Cmax as the peak of the concentration-time curve. As for `CCc1nn2cc(F)c(N3CCN(CC(=O)N4CC[C@@H](O)C4)CC3)cc2c1N(C)c1nc(-c2ccc(F)cc2)c(C#N)s1` [Example 109, (R)-2-((2-ethyl-6-fluoro-5-(4-(2-(3-hydroxypyrrolidin-1-yl)-2-oxoethyl)piperazin-1-yl)pyrazolo[1,5-a]pyridin-3-yl)(methyl)amino)-4-(4-fluorophenyl)thiazole-5-carbonitrile], the IC50 on Autotaxin [1] (setting [4]) is at most 100 nM. Also, the IC50 on Autotaxin [1] (setting [5]) was at most 100 nM. Moreover, in series [2], the AUC worked out at 269 ± 85 ng·h/mL, the highest level (Cmax) was 67.1 ± 24 ng/mL and the half-life was 3.46 ± 0.21 h. Moreover, the IC50 at Autotaxin [3] was 10 nM.
Turning to `CCc1nn2cc(F)c(N3CC4(CN(C(=O)C5(O)CCOCC5)C4)C3)cc2c1N(C)c1nc(-c2ccc(F)cc2)c(C#N)s1` [Example 112, 2-[[2-ethyl-6-fluoro-5-[2-(4-hydroxytetrahydropyran-4-carbonyl)-2,6-diazaspiro[3.3]heptan-6-yl]pyrazolo[1,5-a]pyridin-3-yl]-methyl-amino]-4-(4-fluorophenyl)thiazole-5-carbonitrile], the IC50 at Autotaxin [1] (setting [4]) was at most 100 nM. In addition, the IC50 at Autotaxin [1] (setting [5]) is at most 100 nM. In series [2], the AUC is 4750 ± 1430 ng·h/mL, the peak level (Cmax) was 460 ± 178 ng/mL and the half-life was 3.77 ± 0.34 h. In addition, the IC50 at Autotaxin [3] is 97.5 nM.
Regarding `CN(c1nc(-c2ccc(F)cc2)c(C#N)s1)c1c(C2CC2)nn2cc(F)c(N3CCN(CC(=O)N4CC(O)C4)CC3)cc12` [Compound 113, 2-((2-cyclopropyl-6-fluoro-5-(4-(2-(3-hydroxyazetidin-1-yl)-2-oxoethyl)piperazin-1-yl)pyrazolo[1,5-a]pyridin-3-yl)(methyl)amino)-4-(4-fluorophenyl)thiazole-5-carbonitrile], the IC50 on Autotaxin [1] (setting [4]) is at most 100 nM; at Autotaxin [1] (setting [5]) it was at most 100 nM; on Autotaxin [3], 14.8 nM. The AUC in series [2] turned out to be 963 ± 501 ng·h/mL. In series [2], the Cmax was determined as 177 ± 99 ng/mL. Further, in series [2], the half-life was 2.92 ± 0.31 h.
Take `CCn1nc2ncc(N3CC4(CN(C(=O)[C@H]5CCOC5)C4)C3)cc2c1N(C)c1nc(-c2ccc(F)cc2)c(C#N)s1` [Compound 117]: on Autotaxin [1] (setting [4]), the IC50 is at most 100 nM. For the same molecule, at Autotaxin [1] (setting [5]), the IC50 is at most 100 nM. In series [2], the AUC worked out at 2210 ± 704 ng·h/mL, the Cmax came out at 584 ± 265 ng/mL and the half-life is 4.36 ± 1.3 h. Also, the IC50 at Autotaxin [3] was 176 nM.
In the case of `[2H]c1c(F)c(N2CCN(CC(=O)N3CC(O)C3)CC2)cc2c(N(C)c3nc(-c4ccc(F)cc4)c(C#N)s3)c(CC)nn12` [Example 103, 2-((2-ethyl-6-fluoro-5-(4-(2-(3-hydroxyazetidin-1-yl)-2-oxoethyl)piperazin-1-yl)pyrazolo[1,5-a]pyridin-3-yl-7-d)(methyl)amino)-4-(4-fluorophenyl)thiazole-5-carbonitrile], the IC50 at Autotaxin [1] (setting [4]) is at most 100 nM. The IC50 at Autotaxin [1] (setting [5]) is at most 100 nM. Besides, in series [2], the AUC came to 1080 ± 313 ng·h/mL, the Cmax was 209 ± 58 ng/mL and the half-life is 4.32 ± 1.5 h. For the same molecule, at Autotaxin [3], the IC50 was 48.6 nM.
As for `CCn1nc2nc(C)c(N3CC4(CN(C(=O)C5CCOCC5)C4)C3)cc2c1N(C)c1nc(-c2ccc(F)cc2)c(C#N)s1` [Compound 122, 2-((2-ethyl-6-methyl-5-(6-(tetrahydro-2H-pyran-4-carbonyl)-2,6-diazaspiro[3.3]heptan-2-yl)-2H-pyrazolo[3,4-b]pyridin-3-yl)(methyl)amino)-4-(4-fluorophenyl)thiazole-5-carbonitrile], at Autotaxin [1] (setting [4]), the IC50 is at most 100 nM. Further, the IC50 on Autotaxin [1] (setting [5]) is at most 100 nM. In series [2], the AUC was determined as 1090 ± 544 ng·h/mL, the peak level (Cmax) was 403 ± 341 ng/mL and the half-life was 2.99 ± 3 h. The IC50 at Autotaxin [3] was 26.8 nM.
In the case of `CN(c1nc(-c2ccc(F)cc2)c(C#N)s1)c1c(C2CC2)nn2cc(F)c(N3CC4(CN(C(=O)[C@H]5CCOC5)C4)C3)cc12` [Compound 114, (S)-2-((2-cyclopropyl-6-fluoro-5-(6-(tetrahydrofuran-3-carbonyl)-2,6-diazaspiro[3.3]heptan-2-yl)pyrazolo[1,5-a]pyridin-3-yl)(methyl)amino)-4-(4-fluorophenyl)thiazole-5-carbonitrile], at Autotaxin [1] (setting [4]), the IC50 is at most 100 nM. Besides, on Autotaxin [1] (setting [5]), the IC50 was at most 100 nM. Further, in series [2], the AUC was determined as 1460 ± 1120 ng·h/mL, the Cmax came out at 140 ± 102 ng/mL and the half-life was 3.72 ± 2.5 h. Further, at Autotaxin [3], the IC50 is 16 nM.
As to `CCc1nn2cc(F)c(N3CC4(CN(C(=O)C5CCN(C)CC5)C4)C3)cc2c1N(C)c1nc(-c2ccc(F)cc2)c(C#N)s1` [Example 106, 2-((2-ethyl-6-fluoro-5-(6-(1-methylpiperidine-4-carbonyl)-2,6-diazaspiro[3.3]heptan-2-yl)pyrazolo[1,5-a]pyridin-3-yl)(methyl)amino)-4-(4-fluorophenyl)thiazole-5-carbonitrile], the IC50 at Autotaxin [1] (setting [4]) was at most 100 nM. At Autotaxin [1] (setting [5]), the IC50 was at most 100 nM. Moreover, in series [2], the AUC was 350 ± 156 ng·h/mL, the Cmax worked out at 29.2 ± 15 ng/mL and the half-life is 7.21 ± 0.98 h. For the same molecule, on Autotaxin [3], the IC50 was 19.2 nM.
On to `CCn1nc2nc(C)c(N3CCN(CC(=O)N4CC(O)C4)CC3)cc2c1N(C)c1nc(-c2ccc(F)cc2)c(C#N)s1` [Compound 119, 2-((2-ethyl-5-(4-(2-(3-hydroxyazetidin-1-yl)-2-oxoethyl)piperazin-1-yl)-6-methyl-2H-pyrazolo[3,4-b]pyridin-3-yl)(methyl)amino)-4-(4-fluorophenyl)thiazole-5-carbonitrile], for which the IC50 on Autotaxin [1] (setting [4]) is at most 100 nM. For the same molecule, the IC50 at Autotaxin [1] (setting [5]) was at most 100 nM. Besides, in series [2], the AUC was found to be 222 ± 160 ng·h/mL, the highest level (Cmax) was 96.2 ± 73 ng/mL and the half-life is 1.64 ± 1.27 h. In addition, on Autotaxin [3], the IC50 was 18.6 nM.
As for `CN(c1nc(-c2ccc(F)cc2)c(C#N)s1)c1c(C2CC2)nn2ccc(N3CCN(CC(=O)N4CC(O)C4)CC3)cc12` [Example 21, 2-((2-cyclopropyl-5-(4-(2-(3-hydroxyazetidin-1-yl)-2-oxoethyl)piperazin-1-yl)pyrazolo[1,5-a]pyridin-3-yl)(methyl)amino)-4-(4-fluorophenyl)thiazole-5-carbonitrile], the IC50 on Autotaxin [1] (setting [4]) and at Autotaxin [1] (setting [5]) was at most 100 nM throughout.
For `Cc1cc(N2CCN(C3COCC3O)CC2)cc2c(N(C)c3nc(-c4ccc(F)cc4)c(C#N)s3)c(C3CC3)nn12` (stereo not shown) [Example 92], the IC50 at Autotaxin [1] (setting [4]) and on Autotaxin [1] (setting [5]) was 100 to 500 nM throughout.
